Test results taken from PubChem BioAssay (NCI).
“And” between values parts separate entries of the source, which are not always exact repeats. Identical values can stand only once.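 Compound exposure: 48 hours, 5 concentrations, 96-well plates. Abbreviation: GI50, concentration required for 50% inhibition of growth. TGI is the concentration that stops growth completely.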

Legend:
Test in all cases: NCI-60 cell line screen, 48 h
[1] = tested on: OVCAR-4 ovarian
[2] = tested on: ACHN renal
[3] = tested on: 786-0 renal
[4] = tested on: SK-MEL-5 melanoma
[5] = tested on: SN12C renal
[6] = tested on: UACC-62 melanoma
[7] = tested on: BT-549 breast
[8] = tested on: HS 578T breast
[9] = tested on: OVCAR-8 ovarian
[10] = tested on: U251 CNS

Structure (SMILES)	GI50 [1]	TGI [1]	GI50 [2]	TGI [2]	GI50 [3]	TGI [3]	GI50 [4]	TGI [4]	GI50 [5]	TGI [5]	GI50 [6]	TGI [6]	GI50 [7]	TGI [7]	GI50 [8]	TGI [8]	GI50 [9]	TGI [9]	GI50 [10]	TGI [10]
OCCNC(=S)Nc1ccc(-c2nc(N3C[C@H]4CC[C@@H](C3)O4)c3cccn3n2)cc1	0.0389 µM	0.63 µM	0.0502 µM	1.86 µM	0.0677 µM	12.8 µM	0.0668 µM	0.642 µM	0.0617 µM	16.9 µM	0.018 µM	0.194 µM	0.021 µM	0.507 µM	0.0221 µM	0.248 µM	0.173 µM	3.16 µM	0.114 µM	11.6 µM
CC[C@@]1(O)C(=O)OCc2c1cc1n(c2=O)Cc2cc3c([N+](=O)[O-])c(O)ccc3nc2-1	2.22 µM	8.73 µM	0.051 µM	0.611 µM	0.0477 µM	0.432 µM	0.459 µM	2.39 µM	0.057 µM	4.77 µM	0.0255 µM	0.265 µM					0.249 µM	12.7 µM	0.0405 µM	1.22 µM
Cc1c(C)n(CC(O)CNC2CCCCC2C)c2ccccc12 (stereo not given)	12 µM	24.4 µM	13.3 µM	26 µM	12.5 µM	25.6 µM	12.6 µM	25.4 µM	16 µM	30.5 µM	14.8 µM	29 µM	16 µM	30.1 µM	16.3 µM	43 µM	16.2 µM	31.2 µM	13.8 µM	26.7 µM
CN1CCN2c3ccccc3CC(C#N)(C#N)C2C1 (stereo not given)		> 100 µM		> 100 µM		> 100 µM		> 100 µM		> 100 µM		> 100 µM						> 100 µM		> 100 µM
CN(C(=N)c1ccccc1)c1ccccc1		> 100 µM				> 100 µM		> 100 µM		> 100 µM		> 100 µM						> 100 µM		> 100 µM
CC(C)(C)c1cc(O)c2c(c1O)C(=O)CCC2		> 100 µM		> 100 µM		> 100 µM		39.2 µM		> 100 µM		80.5 µM						> 100 µM		> 100 µM
C[C@]12CC/C(=N\O)C[C@@H]1CC[C@@H]1[C@@H]2CC[C@]2(C)/C(=N/O)CC[C@@H]12	56.8 µM	> 100 µM	50.1 µM	> 100 µM	26.7 µM	72.3 µM	23.6 µM	53.9 µM	47.1 µM	> 100 µM	35.6 µM	> 100 µM					45.2 µM	> 100 µM	35.2 µM	> 100 µM
COC(=O)CCC(=O)Nc1cccc(C(F)(F)F)c1		> 100 µM		> 100 µM		> 100 µM		> 100 µM		> 100 µM		> 100 µM						> 100 µM		> 100 µM
Cc1ccc2oc(=O)cc(CC(=O)O)c2c1		> 100 µM		> 100 µM		> 100 µM		> 100 µM		> 100 µM		> 100 µM						> 100 µM		> 100 µM
O=C1C[C@@H]2[C@@H](C=CC23CC3)N1O		> 100 µM				> 100 µM		> 100 µM		> 100 µM		> 100 µM						> 100 µM		> 100 µM
CCOC(=O)NC(=O)c1cn(CC(=O)NCC(=O)NCC(=O)N2CCN(CCn3c(C)nc(C(N)=O)c3N)CC2)c(=O)[nH]c1=O				> 100 µM		> 100 µM		> 100 µM		> 100 µM		> 100 µM						> 100 µM		> 100 µM
NC(N)=NS(=O)(=O)c1ccc(NC(=O)c2cccn3c(=O)c4ccccc4nc23)cc1		> 100 µM		> 100 µM		> 100 µM		> 100 µM		> 100 µM		> 100 µM						> 100 µM		> 100 µM
CN(Cc1ccccc1)c1ncnc2ccc(Br)cc12	12.8 µM	36.8 µM	12.6 µM	28.1 µM	13.5 µM	26.3 µM	11.8 µM	24.1 µM	15.1 µM	29.6 µM	13.1 µM	27.1 µM			11.5 µM	27.8 µM	26.1 µM	95.5 µM	11.9 µM	24.6 µM
CCCCN1C(=O)C2c3[nH]c4ccccc4c3C3CCCCC3C2C1=O (mixture of isomers)		8.22 µM		27.7 µM		20.2 µM		90.3 µM		> 100 µM		79.3 µM						58.8 µM		36.3 µM
C=C(c1ccccc1)[C@@]1(O)CCCC[C@H]1NC(c1ccccc1)c1ccccc1		34.5 µM		23.9 µM		25.5 µM		22.8 µM		29 µM		27.8 µM						28.1 µM		24.5 µM
COc1ccc(C(=C(C#N)C#N)c2ccc(OC)cc2)cc1		> 100 µM		> 100 µM		> 100 µM				> 100 µM		> 100 µM						> 100 µM		> 100 µM
C=CC1CC12C(=O)C1OC2(C)C2C(=O)c3c(O)cccc3C(=O)C12 (stereo not given)			20.1 µM	46.6 µM	29.1 µM	> 100 µM			46.8 µM	> 100 µM			53.4 µM	> 100 µM	21.8 µM	88.3 µM	37.8 µM	> 100 µM	28.7 µM	77.7 µM
OCC(O)C(O)C(O)c1nn[nH]n1 (stereo not given)		> 100 µM		> 100 µM		> 100 µM		> 100 µM		> 100 µM		> 100 µM						> 100 µM		> 100 µM
CC1=CC[C@@H]2[C@@H](CC[C@@]2(C)O)C(C)(C)[C@H]1CC[C@@H]1[C@@]2(C)CC[C@@H](O)C(C)(C)O[C@@H]2CC[C@]1(C)O		> 100 µM		58.7 µM		34.8 µM		27.8 µM		57.2 µM		31.9 µM		44 µM						39.8 µM
Nc1nc2ccccc2c2[nH]c3ccccc3c12	1.5 µM	3.52 µM	0.485 µM	1.79 µM	1.12 µM	2.61 µM	1.64 µM	3.01 µM	1.24 µM	2.97 µM	13.6 µM	27.3 µM	1.26 µM	2.58 µM			0.985 µM	2.16 µM	1.2 µM	2.43 µM
Cc1cc(Cl)ccc1NC(=O)C1C(=O)C(=O)N(c2ccc(Cl)cc2C)C1=O (stereo not given)		> 100 µM		> 100 µM		> 100 µM		> 100 µM		> 100 µM		> 100 µM						> 100 µM		> 100 µM

Structure (SMILES)	GI50 [1]	TGI [1]	GI50 [2]	TGI [2]	GI50 [3]	TGI [3]	GI50 [4]	TGI [4]	GI50 [5]	TGI [5]	GI50 [6]	TGI [6]	GI50 [7]	TGI [7]	GI50 [8]	TGI [8]	GI50 [9]	TGI [9]	GI50 [10]	TGI [10]
CC/C=C\C[C@H](O)C/C=C1/C(=O)C=C[C@@H]1C/C=C\CCCC(=O)OCCS(=O)(=O)c1ccccc1	4.05 µM	16.9 µM	3.17 µM	10.3 µM	3.22 µM	8.61 µM	1.99 µM	4.06 µM	3.62 µM	19.1 µM	2.48 µM	6.29 µM			23.9 µM	> 100 µM	4.07 µM	15.3 µM	3.35 µM	12.5 µM
O=C1C2c3[nH]c4ccccc4c3C3CCC(c4ccccc4)CC3C2C(=O)N1c1ccccc1 (stereo not given)		> 100 µM		> 100 µM		> 100 µM		> 100 µM		> 100 µM		> 100 µM						> 100 µM		> 100 µM
COC(=O)c1ccc(CS(=O)(=O)c2ccccc2)cc1		> 100 µM		> 100 µM		> 100 µM		> 100 µM		> 100 µM		> 100 µM						> 100 µM		> 100 µM
COc1cccc(-c2cc(C(=O)Nc3ccc(Cl)cc3)nc(N)n2)c1		> 100 µM		> 100 µM		> 100 µM		> 100 µM		> 100 µM		> 100 µM						> 100 µM		> 100 µM
Clc1cc(Cl)cc(C2SCc3nc4ccccc4n32)c1 (stereo not given)				69 µM		32.4 µM		25.7 µM		29.9 µM		> 100 µM						33.2 µM		34.2 µM
COc1ccc(-c2cnc(SCC(=O)c3c(C)n(C)n(-c4ccccc4)c3=O)n2-c2ccc(OC)cc2)cc1			> 50 µM	> 50 µM	> 50 µM	> 50 µM	22.3 µM	> 50 µM	> 50 µM	> 50 µM	> 50 µM	> 50 µM			42.6 µM	> 50 µM	> 50 µM	> 50 µM	> 50 µM	> 50 µM
O=C(NCCN1CCOCC1)Nc1nc2ccc(Sc3nnc4ccc(-c5ccc(F)cc5)nn34)cc2s1			> 90.8 µM	> 100 µM	1.59 µM	5.39 µM		> 28.6 µM		> 100 µM	6.16 µM	21.4 µM	2.62 µM	> 27.8 µM			> 100 µM	> 100 µM		
N#CC1=C(c2ccccc2)NN(Cc2ccccc2)C(c2ccc(Cl)cc2)CC1=O (stereo not given)		75.9 µM		> 100 µM		98.4 µM		> 100 µM												38.2 µM
CCOc1cccc2sc(N)nc12		> 100 µM		> 100 µM		> 100 µM		> 100 µM		> 100 µM		> 100 µM						> 100 µM		> 100 µM
CN1C(=O)C(C)(C)NS1(=O)=O		> 100 µM		> 100 µM		> 100 µM		> 100 µM		> 100 µM		> 100 µM						> 100 µM		> 100 µM
CO[C@H](C(=O)O[C@H]1C(=O)N2CCC3CCC1C32C)c1ccccc1 (stereo not given in full)		> 100 µM		> 100 µM		> 100 µM		> 100 µM		> 100 µM		> 100 µM						> 100 µM		> 100 µM
CC(C)COC(=O)N1N=NC2C3CC(=O)C(O3)C21 (stereo not given)		> 100 µM		> 100 µM		> 100 µM		> 100 µM		> 100 µM		> 100 µM						> 100 µM		> 100 µM
O=C1C2=C(C(=O)c3c(O)ccc(O)c31)N(c1cccnc1)Cc1ccccc1O2			0.0612 µM	0.195 µM	0.211 µM	0.605 µM	1.33 µM	2.99 µM	0.312 µM	1.02 µM	0.183 µM	0.396 µM	0.392 µM	1.24 µM			0.552 µM	3.43 µM	0.651 µM	2.76 µM
O=c1/c(=C/c2ccccc2O)sc2nc3ccccc3n12		> 100 µM		> 100 µM		> 100 µM		> 100 µM		> 100 µM		80.6 µM						> 100 µM		
C/C(=N\NC(=O)C[n+]1ccccc1)c1sc(-c2nc(C)c(/C(C)=N/NC(=O)C[n+]3ccccc3)s2)nc1C				> 100 µM		> 100 µM		> 100 µM		> 100 µM		> 100 µM						> 100 µM		> 100 µM
CC(=O)O[C@H]1CC[C@@]2(C)C(=CC[C@@H]3C2CC[C@]2(C)C(=O)NC(=O)CC32)C1 (stereo not given in full)		> 100 µM		> 100 µM		> 100 µM		> 100 µM		> 100 µM		> 100 µM						> 100 µM		> 100 µM
COC1=CC(=O)c2c(O)c3c(c(O)c2C1=O)OC1(Oc2c(cc4cc(C)oc(=O)c4c2O)CC1O)C3O (stereo not given)		67.5 µM		> 100 µM		> 100 µM		95 µM		49.3 µM		> 100 µM				> 100 µM		> 100 µM		> 100 µM
COc1cccc(-c2cc(=O)c3cc(C)c(C)c(C(=O)O)c3o2)c1		> 100 µM		> 100 µM		> 100 µM		> 100 µM		> 100 µM		> 100 µM						> 100 µM		> 100 µM
CC1OC(OC23C(=O)CC(C)(O)CC2(O)C=CC2=C3C(=O)c3ccc(C4CC(OC5CCC(OC6CC(O)C(O)C(C)O6)C(C)O5)C(O)C(C)O4)c(O)c3C2=O)CCC1O (stereo not given)		33.6 µM and 30 µM		31.4 µM and 30.8 µM		31.7 µM and 29.5 µM		33.3 µM and 29.7 µM		32.5 µM and 30.1 µM		30 µM and 27.1 µM					16.5 µM and 5.32 µM	30.1 µM and 17.6 µM		29.5 µM and 30.8 µM
C=CCNC(=O)ON1C(=O)CCC1=O		> 100 µM		> 100 µM		> 100 µM				> 100 µM		> 100 µM						> 100 µM		> 100 µM
